According to patent US7045343B2, “Sterilization indicator test packs” (3M Innovative Properties Company, priority 1998, dated 2006):

Test system: enzyme associated with Bacillus stearothermophilus spores
Test: Rapid enzyme fluorescence readout of dual rapid readout indicators after prevacuum steam sterilization
Assay type: biochemical
Settings: 4-pulse prevacuum steam 121° C.
How it was run: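 Bacillus stearothermophilus ATCC 7953 spores were coated with a sterilant-resistant chemical solution and pipetted onto paper strips at about 1×10^6 spores per strip. Each strip sat in a dual rapid readout indicator beside a crushable inner container of nutrient medium holding 4-methylumbelliferyl-alpha-D-glucoside at pH 7.6. Indicators went through a 4-pulse prevacuum steam cycle at 121° C, were activated, incubated at 60° C, and read for fluorescence on a 3M ATTEST Model 190 Rapid Autoreader.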

[1] = Example 4, 50 mg/ml coating, 7–18 min
[2] = Example 4, 100 mg/ml coating, 7–18 min
[3] = Example 1, 10 mg/ml coating, 7–13 min
[4] = Example 1, 20 mg/ml coating, 7–13 min
[5] = Example 1, 40 mg/ml coating, 7–13 min
[6] = Example 1, 80 mg/ml coating, 7–13 min
[7] = Example 1, 100 mg/ml coating, 7–13 min
[8] = Example 3, 100 mg/ml coating, 7–15 min

Decaglyceryl Decaoleate
FLUORESCENCE - PERCENT POSITIVE 1 HR [1]: 0%
FLUORESCENCE - PERCENT POSITIVE 2 HR [1]: 19.4%
FLUORESCENCE - PERCENT POSITIVE 3 HR [1]: 29.0%
FLUORESCENCE - PERCENT POSITIVE 4 HR [1]: 41.9%
FLUORESCENCE - PERCENT POSITIVE 1 HR [2]: 16.7%
FLUORESCENCE - PERCENT POSITIVE 2 HR [2]: 20%
FLUORESCENCE - PERCENT POSITIVE 3 HR [2]: 30%
FLUORESCENCE - PERCENT POSITIVE 4 HR [2]: 50%

Decaglyceryl Monostearate
accuracy of sterilization indicators compared to indicators made with untreated spores: improved
accuracy of sterilization indicators compared to indicators made with untreated spores (listed as decaglycerol monostearate): improved accuracy
FLUORESCENCE - PERCENT POSITIVE 1 HR [3]: 0%
FLUORESCENCE - PERCENT POSITIVE 2 HR [3]: 41.0%
FLUORESCENCE - PERCENT POSITIVE 3 HR [3]: 74.4%
FLUORESCENCE - PERCENT POSITIVE 4 HR [3]: 82.1%
FLUORESCENCE - PERCENT POSITIVE 5 HR [3]: 87.2%
FLUORESCENCE - PERCENT POSITIVE 6 HR [3]: 89.7%
FLUORESCENCE - PERCENT POSITIVE 1 HR [4]: 0%
FLUORESCENCE - PERCENT POSITIVE 2 HR [4]: 17.6%
FLUORESCENCE - PERCENT POSITIVE 3 HR [4]: 73.5%
FLUORESCENCE - PERCENT POSITIVE 4 HR [4]: 91.2%
FLUORESCENCE - PERCENT POSITIVE 5 HR [4]: 100%
FLUORESCENCE - PERCENT POSITIVE 6 HR [4]: 100%
FLUORESCENCE - PERCENT POSITIVE 1 HR [5]: 0%
FLUORESCENCE - PERCENT POSITIVE 2 HR [5]: 69.5%
FLUORESCENCE - PERCENT POSITIVE 3 HR [5]: 91.5%
FLUORESCENCE - PERCENT POSITIVE 4 HR [5]: 100%
FLUORESCENCE - PERCENT POSITIVE 5 HR [5]: 100%
FLUORESCENCE - PERCENT POSITIVE 6 HR [5]: 100%
FLUORESCENCE - PERCENT POSITIVE 1 HR [6]: 0%
FLUORESCENCE - PERCENT POSITIVE 2 HR [6]: 85.5%
FLUORESCENCE - PERCENT POSITIVE 3 HR [6]: 96.4%
FLUORESCENCE - PERCENT POSITIVE 4 HR [6]: 100%
FLUORESCENCE - PERCENT POSITIVE 5 HR [6]: 100%
FLUORESCENCE - PERCENT POSITIVE 6 HR [6]: 100%
FLUORESCENCE - PERCENT POSITIVE 1 HR [7]: 8.8%
FLUORESCENCE - PERCENT POSITIVE 2 HR [7]: 85.3%
FLUORESCENCE - PERCENT POSITIVE 3 HR [7]: 100%
FLUORESCENCE - PERCENT POSITIVE 4 HR [7]: 100%
FLUORESCENCE - PERCENT POSITIVE 5 HR [7]: 100%
FLUORESCENCE - PERCENT POSITIVE 6 HR [7]: 100%
FLUORESCENCE - PERCENT POSITIVE 1 HR [8]: 0%
FLUORESCENCE - PERCENT POSITIVE 2 HR [8]: 100.0%
FLUORESCENCE - PERCENT POSITIVE 3 HR [8]: 100.0%
FLUORESCENCE - PERCENT POSITIVE 4 HR [8]: 100.0%
FLUORESCENCE - PERCENT POSITIVE 1 HR [1]: 13.8%
FLUORESCENCE - PERCENT POSITIVE 2 HR [1]: 86.2%
FLUORESCENCE - PERCENT POSITIVE 3 HR [1]: 100.0%
FLUORESCENCE - PERCENT POSITIVE 4 HR [1]: 100.0%
